Source: publication PMC7645381, “Development and application of a high-throughput screening assay for identification of small molecule inhibitors of the P. falciparum reticulocyte binding-like homologue 5 protein” (International Journal for Parasitology: Drugs and Drug …, 2020)
Values joined by “and” are separate entries in the source; they are usually repeats but may differ in a detail not shown here. Equal entries are not always repeated. Where two headings read alike, the source gives them in different places.

Experiments:
[1] = molecular target: P. falciparum Rh5 (Rh5 – basigin interaction) (Plasmodium falciparum, UniProt Q8IFM5); test: biochemical; type: binding
[2] = test system: P. falciparum 3D7 parasites; test: P. falciparum parasite viability assay (LDH); type: cell-based; details: LDH activity, 10-point dilution series, 72 h, read-out: P. falciparum 3D7 EC50
Procedure: A modified version of the lactate dehydrogenase (LDH) assay described by [Gamo et al. […] Compounds were pre-dispensed in 384-well plates, RPMI/Albumax growth media was added, and P. falciparum inoculated. Plates were incubated for 72 h and then frozen at −80 °C overnight. LDH activity was quantified with the modified cofactor 3-acetylpyridine adenine dinucleotide (APAD) (Sigma Aldrich) by measuring absorbance of the tetrazolium indicator nitro blue tetrazolium (NBT) (Sigma Aldrich) at 650 nm. Parasite conditions: […] Growth inhibition assay: […] Intermediate compound dilution plates were prepared by dispensing 5 μL from each well of the compound master plate into 11.5 μL of RPMI/Albumax growth media. Duplicate assay plates (384-well) were then prepared by dispensing 0.5 μL of compound from the intermediate dilution plates into 9.5 μL of RPMI/Albumax growth media. […] The final DMSO concentration was 0.1% (to limit toxicity to parasites). […] Evaluation of parasite growth measuring lactate dehydrogenase (LDH) activity: After 72 h of incubation, plates were frozen at −80 °C overnight and then thawed at room temperature for at least 4 h. […] Plates were shaken to ensure mixing and absorbance at 650 nm was monitored using a PerkinElmer Envision plate reader after 30 min of incubation at room temperature. Data were normalised to percent growth inhibition using positive and negative controls and analyzed using TIBCO Spotfire software.

P. falciparum D10 = P. falciparum D10 growth inhibition by flow cytometry; type: cell-based; details: for EC50: Plasmodium falciparum, D10, growth inhibition by flow cytometry, 12-point dilution series, 72 h
Procedure: Pranlukast and selected analogues were then evaluated in a P. falciparum parasite viability assay. For this assay, we followed the procedure described by [Gamo et al. (2010)], that used lactate dehydrogenase (LDH) as a readout for parasite viability. In this assay, 3D7 parasites were incubated over 72 h in the presence of increasing concentrations of compounds. […]. For a comparison, selected compounds were incubated in the presence of P. falciparum D10 parasites for 72 h (Table 1, Fig. S14) and growth inhibition measured by flow cytometry. […].

HepG2 cells [3] = test: HepG2 growth inhibition assay; type: cell-based; details: Homo sapiens, 10-point dilution series, 48 h, Cell Titre-Glo
Procedure: HepG2 cells were cultured in Dulbeccos modified eagle's medium (DMEM) supplemented with 10% fetal calf serum (FCS), in a humidified incubator at 37 °C and 5% CO2. Ten-point compound titration assays were performed by treating cells (1 × 10^3) for 48 h in 384 well tissue culture treated plates (Greiner). Cytotoxicity was determined using Cell Titer Glo (Promega) and calculated as a percentage using DMSO as a positive growth control and 10 μM Bortezomib as a negative growth control. EC50 values were calculated using a 4-parameter log dose, non-linear regression analysis, with sigmoidal dose response (variable slope) curve fit using Graph Pad Prism (version 6.05). 0 and 100 constraint parameters were used for curve fitting. […]

D10-PfPHG parasites = test: Schizont rupture assay; type: cell-based, P. falciparum
Procedure: D10-PfPHG parasites ([Wilson et al., 2010]) were cultured in human O^+ erythrocytes in RPMI-HEPES culture medium (pH 7.4, 50 μg/mL hypoxanthine, 25 mM NaHCO3, 20 μg/mL gentamicin, 0.5% Albumax II (Thermo Fisher Scientific) according to established protocols ([Trager and Jensen, 1976]) and maintained in an atmosphere of 1% O2, 4% CO2 and 95% N2. For assessment of merozoite invasion after schizont rupture, parasites were tightly synchronised to a 4 h window of invasion using heparin ([Boyle et al., 2010]; [Wilson et al., 2015]) and then grown for a further 42 h. Drug treatments were setup at 2–3% parasitaemia and 1% haematocrit in 50 μL volumes with a 1 in 10 dilution of drug added when parasites were 44–48 h post invasion. After 6 h of drug treatment and immediately after invasion was expected to finish, the assays were treated with 5 μg/mL ethidium bromide (EtBr, Bio-Rad) for 5 min prior to flow cytometry assessment of parasitaemia using a Becton Dickinson Accuri. Gating of newly invaded rings, free merozoites and unruptured late stages was achieved as per published methods ([Wilson et al., 2013]).
To determine if the modest activity of pranlukast and analogues in the parasite viability assay was a consequence of invasion inhibition, rather than inhibition at another stage of blood stage parasite development, we performed an assay that measures the effect of compound treatment on P. falciparum D10 asexual stage transition between late schizont and ring stages ([Wilson et al., 2013]). In this assay, highly synchronised mature schizont-stage parasites were incubated with pranlukast and selected analogues at 50 and 100 μM and the transition to newly invaded ring stage parasites was quantified by flow cytometry. In parallel, the rate of schizont rupture and merozoite release was quantified to assess whether any reduction in newly invaded ring stages was due to a block affecting merozoite release or development. […] Neither DMSO (at the maximal concentration used for the drug treatments of 0.1%) or a non-invasion inhibitory mAb control caused a reduction in merozoite invasion. […] […].

HepG2 cells [4] = test system: HepG2 cells; design: method as in Pingaew et al., 2014; details: incubation time of 48 h, MTT assay ref Pingaew et al., 2014; read-out: HepG2 EC50 literature value; cited from earlier work
[5] = AlphaScreen TruHits counterscreen assay; details: for IC50: 11 pt titration, flag (POORFIT given as ~), read-out: Basigin_IC50_Counter_TruHits IC50; for % Inhibition Counter: TruHits counterscreen, single point, 10 μM in duplicate
Procedure: The counterscreen assay was conducted using AlphaScreen TruHits kit (PerkinElmer). Biotinylated acceptor beads and Streptavidin donor beads were both diluted in assay buffer (final concentration of 10 μg/mL). Using the Combi-multidrop, 10 μL of each bead solution (20 μg/mL prepared in assay buffer) was added to every well of the assay plate under subdued lighting. Compound addition and assay readout was performed as described above.

[6] = Basigin_IC50_Counter_Alpha counterscreen; details: 11 pt titration; flag (POORFIT given as ~)
Text: Supplement mmc3.xlsx, sheet "Report" | column: Basigin_IC50_Counter_Alpha IC50

[7] = Plasmodium falciparum, 3D7, 72 h
[8] = 50 and 100 μM, 6 h, flow cytometry
[9] = 11 pt titration of the 45 hits, flag (POORFIT given as ~), two lines per compound, read-out: Basigin_IC50_Assay_Alpha IC50

Chain of P. falciparum Rh5 (Rh5 – basigin interaction) (Q8IFM5 24-526): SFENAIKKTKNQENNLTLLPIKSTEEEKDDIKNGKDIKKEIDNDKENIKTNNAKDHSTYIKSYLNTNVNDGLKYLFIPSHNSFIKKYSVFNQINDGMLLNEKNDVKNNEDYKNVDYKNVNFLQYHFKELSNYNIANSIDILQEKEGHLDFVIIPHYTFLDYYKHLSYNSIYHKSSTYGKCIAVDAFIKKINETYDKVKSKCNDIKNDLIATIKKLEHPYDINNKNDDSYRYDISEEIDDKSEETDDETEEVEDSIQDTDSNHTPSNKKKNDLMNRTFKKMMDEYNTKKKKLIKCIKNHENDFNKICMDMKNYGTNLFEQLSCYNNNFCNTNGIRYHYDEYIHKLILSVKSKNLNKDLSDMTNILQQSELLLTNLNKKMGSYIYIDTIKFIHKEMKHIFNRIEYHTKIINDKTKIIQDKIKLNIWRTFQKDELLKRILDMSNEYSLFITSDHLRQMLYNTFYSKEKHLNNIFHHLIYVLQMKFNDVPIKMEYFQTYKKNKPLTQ

Compound | IC50 [1] [µM] | EC50 (P. falciparum D10) [µM] | EC50 (HepG2 cells [3]) [µM] | merozoite invasion (newly invaded early ring stages) (D10-PfPHG parasites; [8]) | IC50 [1, 9] | IC50 [5] | IC50 [6] | other results
CCOC(=O)c1cc(=O)c2cccc(NC(=O)c3ccc(OCCCc4ccccc4)cc3)c2o1 [Compound 13, Ethyl 4-oxo-8-(4-(3-phenylpropoxy)benzamido)-4H-chromene-2-carboxylate] | > 50 | > 50 | > 50 | minimal inhibition of merozoite invasion | – | – | – | EC50 [2, 7]: > 50 µM; free merozoite numbers (D10-PfPHG parasites; [8]): no reduction in free merozoite numbers
O=C(Nc1cccc2c(=O)cc(C(=O)O)oc12)c1ccc(OCCc2ccccc2)cc1 [Compound 16, 4-Oxo-8-(4-phenethoxybenzamido)-4H-chromene-2-carboxylic acid] | 40 | 6.7 | > 50 | substantial reduction in the numbers of merozoites that had invaded and formed early ring stages | – | – | – | EC50 [2]: 37 µM; EC50 [2, 7]: 40 µM; fold more active against the D10 strain than the 3D7 strain (P. falciparum D10; EC50 D10 vs 3D7): 5 fold; free merozoite numbers (D10-PfPHG parasites; lowest concentration tested (50 μM)): minimal loss in free merozoite numbers
O=C(Nc1cccc2c(=O)cc(C(=O)O)oc12)c1ccc(OCCCc2ccccc2)cc1 [Compound 17, 4-Oxo-8-(4-(3-phenylpropoxy)benzamido)-4H-chromene-2-carboxylic acid] | 24 | 19 | > 50 | minimal inhibition of merozoite invasion | – | – | – | EC50 [2, 7]: 15 µM; free merozoite numbers (D10-PfPHG parasites; [8]): no reduction in free merozoite numbers
O=C(Nc1cccc2c(=O)cc(C(=O)O)oc12)c1ccc(OCCCCc2ccccc2)cc1 [Compound 18, 4-Oxo-8-(4-(4-phenylbutoxy)benzamido)-4H-chromene-2-carboxylic acid] | 21 | 42 | > 50 | reduction in numbers of merozoites that had invaded and formed early ring stages | – | – | – | EC50 [2, 7]: > 50 µM; free merozoite numbers (D10-PfPHG parasites; [8]): similarly reduced numbers of free merozoites
COc1cc([C@@H]2c3cc4c(cc3[C@@H](O[C@@H]3O[C@@H]5CO[C@@H](C)O[C@H]5[C@H](O)[C@H]3O)[C@H]3COC(=O)[C@H]23)OCO4)cc(OC)c1O [Etoposide, reference compound] | – | – | 15.9 | – | – | – | – | EC50 (HepG2 cells [4]): 30.2 µM
O=C(O)c1ccccc1Nc1cccc(OCc2ccc3ccccc3n2)c1 [SR2540, reference compound] | > 50 | 6.1 | > 50 | reduction in numbers of merozoites that had invaded and formed early ring stages | – | – | – | free merozoite numbers (D10-PfPHG parasites; [8]): similarly reduced numbers of free merozoites; increase in unruptured schizonts (D10-PfPHG parasites; at the concentrations tested (50 and 100 μM)): > 40%
CCCN1CCc2cccc3c2[C@H]1Cc1ccc(O)c(O)c1-3 [WEHI-1215034] | – | – | – | – | 1.56 µM and 2.23 µM | > 25 µM | 20 µM and 22.9 µM | –
CN1CCc2cc(O)cc3c2[C@H]1Cc1ccc(O)c(O)c1-3 [WEHI-1215043] | – | – | – | – | 4.02 µM and 4.98 µM | > 25 µM | > 25 µM | –
CCCN1CCc2cc(O)cc3c2[C@H]1Cc1ccc(O)c(O)c1-3 [WEHI-1215052] | – | – | – | – | 7.45 µM and 8.43 µM | > 25 µM | > 25 µM | –
CC(=O)N1CCN(c2ccc(OC[C@@H]3CO[C@@](Cn4ccnc4)(c4ccc(Cl)cc4Cl)O3)cc2)CC1 [WEHI-1215227] | – | – | – | – | 15.4 µM and 13.9 µM | 23.2 µM and 22.1 µM | 13.5 µM and 12.1 µM | –
O.c1cnc2c(c1)ccc1cccnc12 [WEHI-1215482, 1,10-Phenanthroline monohydrate, reference compound] | – | – | – | – | – | – | – | inhibition at 10 µM ([1]; read-out: % Inhibition Confirmation): 99.6%; % Inhibition Counter [5]: 2.663%
CN1CCc2cccc3c2[C@H]1Cc1ccc(O)c(O)c1-3 [WEHI-1216442] | – | – | – | – | ~4.07 µM and 4.14 µM | > 25 µM | > 25 µM | –
O=C([O-])c1ccccc1-c1c2cc(Br)c(=O)cc-2oc2[c]([Hg+])c([O-])c(Br)cc12.[Na+].[Na+].[OH-] [WEHI-1216497, Merbromin, reference compound] | – | – | – | – | – | – | – | % Inhibition Confirmation ([1]; confirmation, single point, 10 μM in duplicate): 100.385%; % Inhibition Pilot ([1]; primary screen, 20 μM): 100.87%; % Inhibition Counter [5]: 29.2235%
O=C(Nc1cccc2c(=O)cc(-c3nnn[nH]3)oc12)c1ccc(OCCCCc2ccccc2)cc1 [WEHI-1216506] | – | – | – | – | 5.28 µM and ~5.6 µM | 24.8 µM and > 25 µM | 10.4 µM and 12.5 µM | –
COCCCOc1ccnc(C[S+]([O-])c2nc3ccccc3[nH]2)c1C (stereo not shown) [WEHI-1216602] | – | – | – | – | 1.08 µM and 1.23 µM | > 25 µM | > 25 µM | –
CCC(CC)(CC(=O)Nc1cccc(/C=C/c2nc(C3CCC3)cs2)c1)C(=O)O [cinalukast, reference compound] | > 50 | 32 | > 50 | reduction in numbers of merozoites that had invaded and formed early ring stages | – | – | – | Rh5 inhibitory activity in the AlphaScreen assay ([1]; highest concentration tested 50 μM): did not show Rh5 inhibitory activity; free merozoite numbers (D10-PfPHG parasites; [8]): similarly reduced numbers of free merozoites
cDPCP [WEHI-1215640, reference compound] | – | – | – | – | – | – | – | % Inhibition Counter [5]: 2.1075%
